Measurements reported in patent US20080009418A1, “Selective Inhibitors” (Alchemia LTD., priority 2004, published 2008).

How the values were obtained:
[1] = molecular target: T1, Human opioid (ORL1) (Homo sapiens, UniProt P41146); experiment: Radioligand binding, human opioid ORL1 membranes, FlashPlate, [125I]-Nociceptin; details: compound at 10 μM, [125I]-Nociceptin
T1 construct: purchased Perkin Elmer Biosignal
Method in brief: (§1)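 Cloned human receptor membranes were coated onto FlashPlate wells and incubated with radioligand and compound (added from a 0.5 mM DMSO daughter plate) for 1 hour at room temperature in the dark. Scintillation counting gave percent inhibition, with DMSO defining total and reference ligand defining non-specific binding.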

[2] = molecular target: T2, Human neurokinin (NK1) (Homo sapiens, UniProt P25103); experiment: Radioligand binding, human neurokinin NK1 membranes, filtration, [125I]-Substance P; details: compound at 10 μM, [125I]-Substance P
T2 construct: purchased Perkin Elmer Biosignal
Method in brief: (§2)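 Percent inhibition of radioligand binding measured on recombinant human membranes: NK1 with [125I]-Substance P, KOP with [3H]-Diprenorphine. Incubation 1 h at room temperature, then harvest onto 0.3% PEI-soaked filters, cold Tris-HCl pH 7.4 washes and scintillation counting; non-specific binding from reference ligand wells.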

[3] = molecular target: T3, Human Melanocortin (MC4) (Homo sapiens, UniProt P32245); experiment: Radioligand binding, human melanocortin MC4 membranes, FlashPlate, [125I]-NDP-αMSH; details: compound at 10 μM, [125I]-NDP-αMSH
T3 construct: purchased Perkin Elmer Biosignal
Method in brief: as §1

[4] = molecular target: T4, Human κ-Opioid (KOP) (Homo sapiens, UniProt P41145); experiment: Radioligand binding, human κ-opioid (KOP) membranes, filtration, [3H]-Diprenorphine; details: compound at 10 μM, [3H]-Diprenorphine
T4 construct: purchased Perkin Elmer Biosignal
Method in brief: as §2

[5] = molecular target: T5, Human δ-opioid (DOP) (Homo sapiens, UniProt P41143); experiment: Radioligand binding, human δ-opioid (DOP) membranes, FlashPlate, [3H]-Bremazocine; details: compound at 10 μM, [3H]-Bremazocine
T5 construct: purchased Perkin Elmer Biosignal
Method in brief: as §1

[6] = molecular target: T6, Human μ-opioid (MOP) (Homo sapiens, UniProt P35372); experiment: Radioligand binding, human μ-opioid (MOP) membranes, FlashPlate, [3H]-Naloxone; details: compound at 10 μM, [3H]-Naloxone
T6 construct: purchased Perkin Elmer Biosignal
Method in brief: as §1

[7] = molecular target: T7, Mouse urotensin (mUR2) (Mus musculus, UniProt Q8VIH9); experiment: Radioligand binding, mouse urotensin mUR2 membranes, FlashPlate, [125I]-Urotensin II; details: compound at 10 μM, [125I]-Urotensin II
T7 construct: purchased Perkin Elmer Biosignal
T7 sequence (Q8VIH9 1-385): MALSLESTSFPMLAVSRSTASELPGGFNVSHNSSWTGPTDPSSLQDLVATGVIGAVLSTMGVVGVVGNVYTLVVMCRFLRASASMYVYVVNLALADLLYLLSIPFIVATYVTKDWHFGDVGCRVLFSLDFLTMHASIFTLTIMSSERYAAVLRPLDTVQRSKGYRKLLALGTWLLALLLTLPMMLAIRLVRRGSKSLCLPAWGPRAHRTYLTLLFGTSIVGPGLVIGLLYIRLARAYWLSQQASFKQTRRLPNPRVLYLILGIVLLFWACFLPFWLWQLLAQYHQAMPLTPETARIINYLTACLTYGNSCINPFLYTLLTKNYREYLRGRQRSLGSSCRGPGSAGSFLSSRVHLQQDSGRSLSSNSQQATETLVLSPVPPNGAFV
Method in brief: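 Cloned mouse urotensin (mUR2) receptor membranes from Perkin Elmer Biosignal were immobilized in FlashPlate microplates using a proprietary coating. Each well got 19.5 μl buffer, then 0.5 μl of DMSO, reference ligand, or compound. Adding 5 μl of [125I]-Urotensin II, diluted to 5× final concentration in binding buffer, started binding. Plates were sealed with TopSeal-A and incubated 1 hour at room temperature in the dark. Wells were counted for 30 seconds each on a TopCount after a 60-second delay, and percentage inhibition was calculated.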

[8] = molecular target: T8, Human Melanocortin (MC3) (Homo sapiens, UniProt P41968); experiment: Radioligand binding, human melanocortin MC3 membranes, FlashPlate, [125I]-NDP-αMSH; details: compound at 10 μM, [125I]-NDP-αMSH
T8 construct: purchased Perkin Elmer Biosignal
Method in brief: as §1

[9] = molecular target: T9, Human melanin-concentrating hormone (MCH1) (Homo sapiens, UniProt Q99705); experiment: Radioligand binding, human melanin-concentrating hormone MCH1 membranes, FlashPlate, [125I]-S36057; details: compound at 10 μM
T9 construct: purchased Perkin Elmer Biosignal
Method in brief: as §1

[10] = molecular target: T10, Human neuropeptide Y (NPY-Y1) (Homo sapiens, UniProt P25929); experiment: Radioligand binding, human neuropeptide Y NPY-Y1 membranes, FlashPlate, [125I]-PYY; details: compound at 10 μM, [125I]-PYY
T10 construct: purchased Perkin Elmer Biosignal
T10 sequence (P25929 1-384): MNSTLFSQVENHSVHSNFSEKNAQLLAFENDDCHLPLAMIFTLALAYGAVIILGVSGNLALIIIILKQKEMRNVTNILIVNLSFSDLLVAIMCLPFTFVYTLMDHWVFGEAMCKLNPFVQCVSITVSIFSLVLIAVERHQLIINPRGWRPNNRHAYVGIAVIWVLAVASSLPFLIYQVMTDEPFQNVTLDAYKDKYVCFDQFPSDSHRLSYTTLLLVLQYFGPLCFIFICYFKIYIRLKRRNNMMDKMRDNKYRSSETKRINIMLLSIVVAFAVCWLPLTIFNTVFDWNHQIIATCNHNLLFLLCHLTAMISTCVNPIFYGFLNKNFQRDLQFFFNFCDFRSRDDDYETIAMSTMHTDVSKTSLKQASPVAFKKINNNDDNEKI
Method in brief: as §1

[11] = molecular target: T11, Human melanocortin (MC5) (Homo sapiens, UniProt P33032); experiment: Radioligand binding, human melanocortin MC5 membranes, FlashPlate, [125I]-NDP-αMSH; details: compound at 10 μM, [125I]-NDP-αMSH
T11 construct: purchased Perkin Elmer Biosignal
Method in brief: as §1

T4 sequence (P41145 whole entry): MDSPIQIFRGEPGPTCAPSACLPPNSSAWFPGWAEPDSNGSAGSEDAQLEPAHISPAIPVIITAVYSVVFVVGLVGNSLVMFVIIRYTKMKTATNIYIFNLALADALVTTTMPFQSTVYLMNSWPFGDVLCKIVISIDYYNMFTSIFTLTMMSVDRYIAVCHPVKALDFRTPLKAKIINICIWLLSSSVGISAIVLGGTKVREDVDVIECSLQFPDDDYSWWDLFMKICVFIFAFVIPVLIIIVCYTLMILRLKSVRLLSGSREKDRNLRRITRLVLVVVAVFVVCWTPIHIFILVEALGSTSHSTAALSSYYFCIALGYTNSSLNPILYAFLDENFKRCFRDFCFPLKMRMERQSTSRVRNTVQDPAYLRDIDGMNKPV
T6 sequence (P35372 whole entry): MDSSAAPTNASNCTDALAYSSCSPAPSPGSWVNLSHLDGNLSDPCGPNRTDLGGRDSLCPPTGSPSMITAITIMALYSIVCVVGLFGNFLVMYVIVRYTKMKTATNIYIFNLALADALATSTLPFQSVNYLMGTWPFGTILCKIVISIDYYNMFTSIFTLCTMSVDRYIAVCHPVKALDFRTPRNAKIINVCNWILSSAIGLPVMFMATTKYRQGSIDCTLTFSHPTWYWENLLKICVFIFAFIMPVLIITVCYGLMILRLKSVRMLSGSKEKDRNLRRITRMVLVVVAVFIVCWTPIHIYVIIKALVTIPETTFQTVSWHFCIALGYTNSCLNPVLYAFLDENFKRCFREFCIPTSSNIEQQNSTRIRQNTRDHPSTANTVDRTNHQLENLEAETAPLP
T11 sequence (P33032 whole entry): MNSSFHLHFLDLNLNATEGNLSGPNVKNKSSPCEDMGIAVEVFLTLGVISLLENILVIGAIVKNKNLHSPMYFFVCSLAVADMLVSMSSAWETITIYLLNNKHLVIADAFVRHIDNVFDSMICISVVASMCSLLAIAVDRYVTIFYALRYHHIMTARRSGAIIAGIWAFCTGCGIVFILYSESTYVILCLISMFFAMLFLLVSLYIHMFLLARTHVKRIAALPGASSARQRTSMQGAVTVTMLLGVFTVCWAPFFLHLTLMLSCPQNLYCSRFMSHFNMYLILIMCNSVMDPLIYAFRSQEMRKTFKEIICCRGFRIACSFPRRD
T3 sequence (P32245 whole entry): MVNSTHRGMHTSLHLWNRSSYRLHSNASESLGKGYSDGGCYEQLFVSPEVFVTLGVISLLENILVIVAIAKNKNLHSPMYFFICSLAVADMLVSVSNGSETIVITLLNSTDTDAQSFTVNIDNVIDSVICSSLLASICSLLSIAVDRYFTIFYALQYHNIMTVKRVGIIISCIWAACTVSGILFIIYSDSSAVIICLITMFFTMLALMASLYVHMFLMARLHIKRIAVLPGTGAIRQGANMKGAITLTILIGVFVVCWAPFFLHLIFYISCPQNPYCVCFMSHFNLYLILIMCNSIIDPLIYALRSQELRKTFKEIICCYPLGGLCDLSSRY
T9 sequence (Q99705 whole entry): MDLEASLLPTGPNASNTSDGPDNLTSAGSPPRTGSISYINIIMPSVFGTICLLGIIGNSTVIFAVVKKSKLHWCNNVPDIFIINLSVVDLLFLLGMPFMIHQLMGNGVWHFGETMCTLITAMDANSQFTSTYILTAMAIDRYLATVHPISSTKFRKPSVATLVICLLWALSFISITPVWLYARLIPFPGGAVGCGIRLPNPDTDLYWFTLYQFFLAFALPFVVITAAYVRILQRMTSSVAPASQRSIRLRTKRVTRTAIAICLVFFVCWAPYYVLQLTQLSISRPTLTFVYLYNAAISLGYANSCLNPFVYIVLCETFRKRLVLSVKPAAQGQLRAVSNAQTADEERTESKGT
T8 sequence (P41968 whole entry): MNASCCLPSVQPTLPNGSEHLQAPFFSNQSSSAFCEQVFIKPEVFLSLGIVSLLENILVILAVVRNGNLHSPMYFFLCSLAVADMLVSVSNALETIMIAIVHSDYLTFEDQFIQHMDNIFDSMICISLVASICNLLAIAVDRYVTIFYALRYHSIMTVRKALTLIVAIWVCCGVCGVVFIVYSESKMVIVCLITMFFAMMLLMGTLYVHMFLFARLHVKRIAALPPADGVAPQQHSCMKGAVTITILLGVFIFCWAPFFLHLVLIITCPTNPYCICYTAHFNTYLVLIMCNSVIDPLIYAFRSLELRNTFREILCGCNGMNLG
T1 sequence (P41146 whole entry): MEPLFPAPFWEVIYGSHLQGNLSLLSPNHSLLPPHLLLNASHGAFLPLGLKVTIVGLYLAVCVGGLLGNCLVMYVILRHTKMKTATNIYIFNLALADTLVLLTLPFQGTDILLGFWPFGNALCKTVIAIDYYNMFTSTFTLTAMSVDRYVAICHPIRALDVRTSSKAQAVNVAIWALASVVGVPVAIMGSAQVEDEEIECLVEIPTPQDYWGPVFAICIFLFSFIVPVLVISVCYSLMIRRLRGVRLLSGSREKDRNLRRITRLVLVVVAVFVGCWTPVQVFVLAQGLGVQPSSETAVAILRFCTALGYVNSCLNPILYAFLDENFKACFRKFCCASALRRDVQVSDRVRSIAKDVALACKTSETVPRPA
T2 sequence (P25103 whole entry): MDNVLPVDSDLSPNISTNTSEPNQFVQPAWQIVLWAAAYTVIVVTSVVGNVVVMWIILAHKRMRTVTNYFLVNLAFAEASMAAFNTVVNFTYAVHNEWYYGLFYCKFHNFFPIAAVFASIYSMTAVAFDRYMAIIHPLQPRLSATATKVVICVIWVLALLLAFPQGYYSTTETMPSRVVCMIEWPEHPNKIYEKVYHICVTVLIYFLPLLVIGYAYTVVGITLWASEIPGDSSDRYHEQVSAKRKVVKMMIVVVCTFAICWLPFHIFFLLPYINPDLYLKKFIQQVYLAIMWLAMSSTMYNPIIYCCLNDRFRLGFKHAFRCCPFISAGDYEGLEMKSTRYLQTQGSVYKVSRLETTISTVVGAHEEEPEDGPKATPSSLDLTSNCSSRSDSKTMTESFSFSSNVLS
T5 sequence (P41143 whole entry): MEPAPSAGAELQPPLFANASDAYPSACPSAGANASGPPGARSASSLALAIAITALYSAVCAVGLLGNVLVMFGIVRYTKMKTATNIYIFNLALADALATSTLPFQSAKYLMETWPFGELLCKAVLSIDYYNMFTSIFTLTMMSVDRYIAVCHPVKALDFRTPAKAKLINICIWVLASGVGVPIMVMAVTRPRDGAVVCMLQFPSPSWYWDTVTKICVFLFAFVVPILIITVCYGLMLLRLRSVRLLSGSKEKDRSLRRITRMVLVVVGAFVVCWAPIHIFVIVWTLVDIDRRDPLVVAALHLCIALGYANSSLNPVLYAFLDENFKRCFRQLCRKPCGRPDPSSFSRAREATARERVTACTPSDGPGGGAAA

For `CO[C@H]1[C@H](O)[C@@H](COCc2ccc3ccccc3c2)OC(OCc2ccc(Cl)cc2)[C@@H]1NC(=O)CCCN` (stereo partly drawn) [compound 99], the “A10 radioligand binding, percentage inhibition” value [1] was “− (“−” indicates less than 50% inhibition at 10 μM)”, the “A8 radioligand binding, percentage inhibition” value [2] was “+ (“+” indicates greater than 50% inhibition at 10 μM)” and the “A4 radioligand binding, percentage inhibition” value [3] was “+ (“+” indicates greater than 50% inhibition at 10 μM)”. For the same compound, the “A2 radioligand binding, percentage inhibition” value [4] was “− (“−” indicates less than 50% inhibition at 10 μM)”, the “A1 radioligand binding, percentage inhibition” value [5] was “− (“−” indicates less than 50% inhibition at 10 μM)” and the “A7 radioligand binding, percentage inhibition” value [6] was “− (“−” indicates less than 50% inhibition at 10 μM)”. The “A11 radioligand binding, percentage inhibition” value [7] was “− (“−” indicates less than 50% inhibition at 10 μM)”, the “A3 radioligand binding, percentage inhibition” value [8] was “− (“−” indicates less than 50% inhibition at 10 μM)” and the “A6 radioligand binding, percentage inhibition” value ([9]; [125I]-S36057) was “− (“−” indicates less than 50% inhibition at 10 μM)”. For the same compound, the “A9 radioligand binding, percentage inhibition” value [10] was “− (“−” indicates less than 50% inhibition at 10 μM)” and the “A5 radioligand binding, percentage inhibition” value [11] was “+ (“+” indicates greater than 50% inhibition at 10 μM)”.

With `NCCCC(=O)NC1C(OCc2ccc3ccccc3c2)OC(COCc2ccc(Cl)cc2)C(O)C1OCc1ccc2ccccc2c1` (stereo not drawn) [compound 395] the “A10: inhibition of radioligand binding” value ([1]; human ORL1 membranes, 10 µM) was “+ (“+” indicates greater than 50% inhibition at 10 μM)”, the “A8: inhibition of radioligand binding” value ([2]; human NK1 membranes) was “+ (“+” indicates greater than 50% inhibition at 10 μM)” and the “A4: inhibition of radioligand binding” value ([3]; human MC4 membranes) was “+ (“+” indicates greater than 50% inhibition at 10 μM)”. The “A2: inhibition of radioligand binding” value ([4]; human KOP membranes, 10 µM) was “− (“−” indicates less than 50% inhibition at 10 μM)”, the “A1: inhibition of radioligand binding” value ([5]; human DOP membranes) was “− (“−” indicates less than 50% inhibition at 10 μM)” and the “A7: inhibition of radioligand binding” value ([6]; human MOP membranes) was “− (“−” indicates less than 50% inhibition at 10 μM)”. For the same compound, the “A11: inhibition of radioligand binding” value ([7]; mouse mUR2 membranes) was “− (“−” indicates less than 50% inhibition at 10 μM)”, the “A3: inhibition of radioligand binding” value ([8]; human MC3 membranes) was “+ (“+” indicates greater than 50% inhibition at 10 μM)” and the “A6: inhibition of radioligand binding” value ([9]; [125I]-S36057, human MCH1 membranes, 10 µM) was “− (“−” indicates less than 50% inhibition at 10 μM)”. The “A9: inhibition of radioligand binding” value ([10]; human NPY-Y1 membranes) was “− (“−” indicates less than 50% inhibition at 10 μM)” and the “A5: inhibition of radioligand binding” value ([11]; human MC5 membranes) was “+ (“+” indicates greater than 50% inhibition at 10 μM)”.

For `N=C(N)NCCC(=O)N[C@H]1C(OCc2ccc(Cl)cc2)O[C@H](COCc2ccc(Cl)cc2)[C@@H](O)[C@@H]1OCc1ccc2ccccc2c1` (stereo partly drawn) [compound 532], the “A10: inhibition of radioligand binding, human opioid (ORL1)” value [1] was “+ (“+” indicates greater than 50% inhibition at 10 μM)”, the “A8: inhibition of radioligand binding, human neurokinin (NK1)” value [2] was “+ (“+” indicates greater than 50% inhibition at 10 μM)” and the “A4: inhibition of radioligand binding, human melanocortin (MC4)” value [3] was “+ (“+” indicates greater than 50% inhibition at 10 μM)”. The “A2: inhibition of radioligand binding, human κ-opioid (KOP)” value [4] was “+ (“+” indicates greater than 50% inhibition at 10 μM)”, the “A1: inhibition of radioligand binding, human δ-opioid (DOP)” value [5] was “− (“−” indicates less than 50% inhibition at 10 μM)” and the “A7: inhibition of radioligand binding, human μ-opioid (MOP)” value [6] was “+ (“+” indicates greater than 50% inhibition at 10 μM)”. The “A11: inhibition of radioligand binding, mouse urotensin (mUR2)” value [7] was “− (“−” indicates less than 50% inhibition at 10 μM)”, the “A3: inhibition of radioligand binding, human melanocortin (MC3)” value [8] was “+ (“+” indicates greater than 50% inhibition at 10 μM)” and the “A6: inhibition of radioligand binding, human melanin-concentrating hormone (MCH1)” value ([9]; [125I]-S36057) was “+ (“+” indicates greater than 50% inhibition at 10 μM)”. For the same compound, the “A9: inhibition of radioligand binding, human neuropeptide Y (NPY-Y1)” value [10] was “− (“−” indicates less than 50% inhibition at 10 μM)” and the “A5: inhibition of radioligand binding, human melanocortin (MC5)” value [11] was “+ (“+” indicates greater than 50% inhibition at 10 μM)”.
